The values below come from US20120148637A1, “NANOPARTICULATE OLMESARTAN MEDOXOMIL COMPOSITIONS, PROCESS FOR THE PREPARATION THEREOF AND PHARMACEUTICAL COMPOSITIONS CONTAINING THEM” (priority 2009, published 2012).

For series [1] the following is noted: cited from earlier work.
The conditions of series [2]: rat, in vivo, po, 20 mg/kg. As to the method: The single oral dose of reference Olmesartan Medoxomil was 20 mg/kg, and that of nanostructured Olmesartan Medoxomil formulation was 75.8 mg/kg which corresponds to 20 mg/kg active agent. Both test substances were administered via gastric tube in a dosing volume of 5 ml/kg. The vehicle of the test items was sterile 0.9% NaCl solution supplemented with 0.25% methylcellulose and the suspension was kept homogenous by continuous stirring during treatment in order to minimize the error resulting from the sedimentation.
Male Wistar rats (purchased from Laboratory Animal Center, University of Szeged) were maintained on a standard pellet rodent diet (Bioplan Ltd, Isaszeg, Hungary) under temperature and light-controlled conditions with tap water available ad libitum. The acclimatization period was at least 4 days. Rats were randomized into groups of 6 and each group was used for blood sampling at different time period after Olmesartan Medoxomil treatment. All animals were fasting for 16 hours before oral treatment. […]
An aliquot of 200 μl serum was combined with 20 μl of internal standard working solution and 1.2 ml methanol for protein precipitation. […] Serum Olmesartan concentrations were determined using a standard curve set up from Olmesartan prepared from Olmesartan Medoxomil by enzymatic hydrolysis. […]

The conditions of series [3]: rats; cited from earlier work.
The conditions of series [4]: cited from earlier work. The source holds these as a separate data set.
The conditions of series [5]: cited from earlier work. The source holds these as a separate data set.

Turning to `CCCc1nc(C(C)(C)O)c(C(=O)OCc2oc(=O)oc2C)n1Cc1ccc(-c2ccccc2-c2nnn[nH]2)cc1` [Olmesartan Medoxomil, 2,3-dihydroxy-2-butenyl 4-(1-hydroxy-1-methylethyl)-2-propyl-1-[p-(o-1H-tetrazol-5-ylphenyl)benzyl]imidazole-5-carboxylate, cyclic 2,3-carbonate], the solubility in methanol result in series [1] (methanol) is reported as “sparingly soluble”. Besides, the solubility in water entry in series [1] (water) was “practically insoluble”. For the same compound, in series [2], the “Area under the serum concentration curve between 15 and 360 min (AUC15-360 min)” value was 382.5 µg·min/mL; the tmax was determined as 2 h.
Turning to `CCCc1nc(C(C)(C)O)c(C(=O)O)n1Cc1ccc(-c2ccccc2-c2nnn[nH]2)cc1` [Olmesartan], in series [3], the “crossing of the blood-brain barrier” value is reported as “crossed the blood-brain barrier poorly, if at all”; the distribution to milk result was “distributed to milk at low levels”; the “passage across the placental barrier” value is “passed across the placental barrier”. Further, the “bound to plasma proteins” value in series [4] is given as 99%. Also, in series [5] (in vivo), the absolute bioavailability entry is on record as “approximately 26%”, the “effect of food on bioavailability” value is “Food does not affect the bioavailability”, the renal clearance is recorded as 0.6 L/h and the terminal elimination half-life result is recorded as “approximately 13 hours”. The total plasma clearance in series [5] (in vivo) is on record as 1.3 L/h. Moreover, in series [5] (once-daily dosing), the accumulation in plasma result is listed as “no accumulation in plasma”.
